Assays:
[1] = biological target: T1, Protease (Human immunodeficiency virus 1, UniProt Q9YQ12); assay: Inhibition of HIV1 protease
[2] = biological target: T1, Protease; assay: Inhibition of South African HIV1 subtype C protease expressed in Escherichia coli BL21S4 (DE3)pLysS cells using Lys-Ala-Arg-Val-Nle-p-nitro-Phe-Glu-Ala-Nle-NH2 as substrate by spectrophotometry
[3] = Ratio of compound IC50 to lopinavir IC50 for human MT4 cells after 5 days by XTT assay; assay type: ADME, cell-based; settings: read-out: Ratio IC50

T1 sequence (Q9YQ12 whole entry): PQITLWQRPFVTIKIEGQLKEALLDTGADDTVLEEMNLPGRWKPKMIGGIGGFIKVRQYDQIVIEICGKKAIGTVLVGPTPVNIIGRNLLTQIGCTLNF

Row | IC50 [1] [µM] | IC50 [2] [µM] | Ki [1] [µM] | SMILES | selectivity ratio at 120 h [3]
1 | – | 1.09 | – | CC(C)[C@H](NC(=O)C[C@@H](NCc1ccccc1)C1O[C@@H]2OC(C)(C)O[C@@H]2[C@H]1OCc1ccccc1)C(=O)N[C@@H](C)C(=O)O (stereo partly specified) | > 5000
2 | – | 1.29 | – | CC(C)[C@H](NC(=O)C[C@H](NCc1ccccc1)C1O[C@@H]2OC(C)(C)O[C@@H]2[C@H]1OCc1ccccc1)C(=O)N[C@@H](C)C(=O)O (stereo partly specified) | > 5000
3 | – | 1.02 | – | CC(C)[C@H](NC(=O)[C@H](C)NC(=O)C[C@@H](NCc1ccccc1)C1O[C@@H]2OC(C)(C)O[C@@H]2[C@H]1OCc1ccccc1)C(=O)O (stereo partly specified) | > 5000
4 | – | 0.76 | – | CC(C)[C@H](NC(=O)[C@H](C)NC(=O)C[C@H](NCc1ccccc1)C1O[C@@H]2OC(C)(C)O[C@@H]2[C@H]1OCc1ccccc1)C(=O)O (stereo partly specified) | > 5000

More lines, now with the values behind:

Row | SMILES | IC50 [1] [µM] | IC50 [2] [µM] | Ki [1] [µM] | selectivity ratio at 120 h [3]
5 | CC(C)(C)OC(=O)N[C@@H](Cc1ccccc1)[C@@H](O)CC(C/C=C/c1ccccc1)C(=O)N[C@H](C(=O)NC[C@H]1OC(O)[C@H](O)[C@H]1O)C1CCCCC1 (stereo partly specified) | 0.00017 | – | – | –
6 | CC(C)[C@H](NC(=O)C[C@@H](N)C1O[C@@H]2OC(C)(C)O[C@@H]2[C@H]1O)C(=O)N[C@@H](C)C(=O)O (stereo partly specified) | – | 0.95 | – | > 5000
7 | CC(C)[C@H](NC(=O)C[C@H](N)C1O[C@@H]2OC(C)(C)O[C@@H]2[C@H]1O)C(=O)N[C@@H](C)C(=O)O (stereo partly specified) | – | 1.01 | – | > 5000
8 | CC(C)[C@H](NC(=O)[C@H](C)NC(=O)C[C@@H](N)C1O[C@@H]2OC(C)(C)O[C@@H]2[C@H]1O)C(=O)O (stereo partly specified) | – | > 10 | – | > 5000
9 | CC(C)[C@H](NC(=O)[C@H](C)NC(=O)C[C@H](N)C1O[C@@H]2OC(C)(C)O[C@@H]2[C@H]1O)C(=O)O (stereo partly specified) | – | > 10 | – | > 5000
10 | CC(C)[C@H](NC(=O)[C@H](C)NC(=O)C[C@H](NCc1ccccc1)C1O[C@@H]2OC(C)(C)O[C@@H]2[C@H]1O)C(=O)O (stereo partly specified) | – | 0.71 | – | > 5000
11 | O=C(N[C@@H]1Cc2ccccc2[C@@H]1O)C(OCc1ccccc1)[C@H](O)[C@@H](O)C(OCc1ccccc1)C(=O)N[C@@H]1Cc2ccccc2[C@@H]1O (stereo partly specified) | – | – | 0.00122 | –
12 | COC(=O)[C@H](CC(C)C)NC(=O)[C@H](Cc1ccccc1)NC(=O)[C@@H]1O[C@@H](C(=O)N[C@@H](Cc2ccccc2)C(C)N[C@@H](CC(C)C)C(=O)OC)[C@@H](O)[C@@H]1O (stereo partly specified) | > 2000 | – | – | –

Reference: ChEMBL document CHEMBL2034816, “Synthesis and molecular modelling studies of novel carbapeptide analogs for inhibition of HIV-1 protease” (Eur J Med Chem, 2012)
